According to ChEMBL document CHEMBL3217473, “Discovery of a structurally novel, drug-like and potent inhibitor of peptidylarginine deiminase” (Medchemcomm, 2013):
Active and inactive are the calls of the source. The rule behind the calls is not given here.

Experiments:
[1] = biological target: T1, Protein-arginine deiminase type-3 (Homo sapiens) (UniProt Q9ULW8); assay: Inhibition of human recombinant PAD3 expressed in HEK293T cells assessed as conversion of BAEE to sodium benzoyl-L-citrulline at 100 uM by colorimetric analysis; format: cell-based; details: HEK-293T
T1 sequence (whole entry): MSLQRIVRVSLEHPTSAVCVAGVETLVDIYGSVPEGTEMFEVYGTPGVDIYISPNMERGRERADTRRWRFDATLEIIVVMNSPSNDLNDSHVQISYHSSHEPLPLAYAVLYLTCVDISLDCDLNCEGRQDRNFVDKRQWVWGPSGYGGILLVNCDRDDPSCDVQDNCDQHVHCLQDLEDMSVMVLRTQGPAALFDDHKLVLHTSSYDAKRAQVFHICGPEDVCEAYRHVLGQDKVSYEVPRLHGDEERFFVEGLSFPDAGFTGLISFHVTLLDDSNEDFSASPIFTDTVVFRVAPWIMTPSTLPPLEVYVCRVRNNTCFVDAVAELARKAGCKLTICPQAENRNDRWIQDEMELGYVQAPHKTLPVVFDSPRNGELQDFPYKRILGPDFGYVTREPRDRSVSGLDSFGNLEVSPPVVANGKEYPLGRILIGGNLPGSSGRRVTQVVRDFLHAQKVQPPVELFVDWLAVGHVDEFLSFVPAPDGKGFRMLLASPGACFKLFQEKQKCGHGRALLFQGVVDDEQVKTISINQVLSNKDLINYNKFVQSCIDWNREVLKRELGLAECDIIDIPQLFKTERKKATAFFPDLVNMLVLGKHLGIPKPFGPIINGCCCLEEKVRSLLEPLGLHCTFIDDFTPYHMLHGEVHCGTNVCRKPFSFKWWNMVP

[2] = biological target: T1, Protein-arginine deiminase type-3 (Homo sapiens); assay: Competitive reversible inhibition of human recombinant PAD3 expressed in HEK293T cells assessed as rate of citrullination of BAEE at 10 to 100 uM by Michaelis-Menten equation analysis using colorimetry; format: cell-based; details: HEK-293T
[3] = test system: NSC; assay: Inhibition of thapsigargin-induced cell death in human NSC assessed as increase in cell survival up to 1 mM treated 15 mins prior to thapsigargin addition measured after 24 hrs drug treatment by methylene blue assay; format: functional, cell-based
[4] = test system: NSC; assay: Cytotoxicity against human NSC assessed as decrease in cell survival at 0.1 to 1000 uM after 24 hrs by methylene blue assay; format: cell-based
[5] = biological target: T1, Protein-arginine deiminase type-3 (Homo sapiens); assay: Inhibition of human recombinant PAD3 expressed in HEK293T cells assessed as conversion of BAEE to sodium benzoyl-L-citrulline up to 1 mM by colorimetric analysis; format: cell-based; details: HEK-293T
[6] = test system: NSC; assay: Inhibition of thapsigargin-induced cell death in human NSC assessed as increase in cell survival at 100 nM treated 15 mins prior to thapsigargin addition measured after 24 hrs drug treatment by methylene blue assay; format: functional, cell-based
[7] = test system: HEK-293T; assay: Inhibition of thapsigargin-induced cell death in human HEK293T cells overexpressing human recombinant PAD3 assessed as increase in cell survival at 10 uM treated 15 mins prior to thapsigargin addition measured after 24 hrs drug treatment by methylene blue assay; format: functional, cell-based
[8] = test system: HEK-293T; assay: Inhibition of thapsigargin-induced cell death in human HEK293T cells overexpressing human recombinant PAD3 assessed as increase in cell survival at 100 uM treated 15 mins prior to thapsigargin addition measured after 24 hrs drug treatment by methylene blue assay; format: functional, cell-based
[9] = test system: NSC; assay: Inhibition of thapsigargin-induced cell death in human NSC assessed as cell survival at <=1 uM treated 15 mins prior to thapsigargin addition measured after 24 hrs drug treatment by methylene blue assay; format: functional, cell-based
[10] = test system: NSC; assay: Inhibition of thapsigargin-induced cell death in human NSC assessed as increase in cell survival at >10 uM treated 15 mins prior to thapsigargin addition measured after 24 hrs drug treatment by methylene blue assay; format: functional, cell-based

inhibition [1] | inhibition [2] | inhibition [5] | Structure (SMILES) | inhibition [3] | Activity [4] | inhibition [6] | inhibition [7] | inhibition [8] | inhibition [9] | inhibition [10]
Active | Active | Active | O=C1CN=C(NCCc2c[nH]c3ccccc23)N1 | Active | Non-toxic | Active | Active |  |  | 
 |  |  | N=C(CCl)NCCC[C@H](NC(=O)c1ccccc1)C(N)=O |  |  |  |  | Active | inactive | Active
